Earlier results as cited in patent publication US20220251295A1 (DYNAMIC BIOLOGICS INC., priority 2019, published 2022).

Columns and labels:
[1] = Phase III clinical trials
[2] = administered with levodopa
[3] = levodopa alone

CCOC(=O)[C@@H](N)Cc1ccc(O)c(O)c1 [Etilevodopa]
efficacy compared with Levodopa [1]: less efficacious than Levodopa

C[C@@](Cc1ccc(O)c(O)c1)(NN)C(=O)O [carbidopa]
reduction of the amount of levodopa required to produce a given response [2]: 75%

N[C@@H](Cc1ccc(O)c(O)c1)C(=O)O [levodopa, (S)-2-amino-3-(3,4-dihydroxyphenyl)propanoic acid]
Plasma half-life of levodopa [3]: ~50 min
